# Test results published in US6521594B1, “Method and composition for treating thrombosis” (La Jolla Cancer Research Foundation, priority 1990, dated 2003).
# Read-outs that look alike come from different tables or passages of the source. Non-standard residues stand in square brackets, D forms with d. No end group written: not given here. *: point of attachment. Pmc = Cc1c(C)c(S(=O)(=O)*)c(C)c2c1OC(C)(C)CC2; Pen = CC(C)(S)[C@H](N)C(=O)O
# Key:
# [1] = test system: αvβ5; test: αvβ5 ELISA IC50 (μM)
# Source text: Table printed on a drawing sheet, FIG. 23
# Title: Modification of Ac-CNPRGD(Y-OMe)RC-NH2
# (§1) Head of the field: αvβ5 ELISA IC50 (μM)
# First copying reader's note: Underlining in the printed sequences marks the cyclised part (C to C); the footnote for the raised a on 'Peptide' is not printed on the sheet.
# (§2) Where the first naming reader finds the target: head: αvβ5 ELISA IC50 (μM)
# [2] = test system: αvβ5; test: αvβ5 ELISA IC50 (μM); remark: listed apart in the source
# Source text: Table printed on a drawing sheet, FIG. 17
# Title: Modifications of G(Pen)[…]
# as §1
# The patent's description of the figure: FIG. 17 is a Table showing the effect of modifications of Pen residue at position −3 (as defined, infra) on potency and selectivity.
# First copying reader's note: Underlining in the printed sequences marks the cyclized part; the footnotes a and b are referenced but not printed on the sheet.
# as §2
# [3] = biological target: T1, platelets (Homo sapiens, UniProt P05106+P08514); test: Thrombin-stimulated platelet aggregation (gel-filtered platelets); format: cell-based; details: thrombin 2 U/ml
# T1 sequence (P08514 32-1039): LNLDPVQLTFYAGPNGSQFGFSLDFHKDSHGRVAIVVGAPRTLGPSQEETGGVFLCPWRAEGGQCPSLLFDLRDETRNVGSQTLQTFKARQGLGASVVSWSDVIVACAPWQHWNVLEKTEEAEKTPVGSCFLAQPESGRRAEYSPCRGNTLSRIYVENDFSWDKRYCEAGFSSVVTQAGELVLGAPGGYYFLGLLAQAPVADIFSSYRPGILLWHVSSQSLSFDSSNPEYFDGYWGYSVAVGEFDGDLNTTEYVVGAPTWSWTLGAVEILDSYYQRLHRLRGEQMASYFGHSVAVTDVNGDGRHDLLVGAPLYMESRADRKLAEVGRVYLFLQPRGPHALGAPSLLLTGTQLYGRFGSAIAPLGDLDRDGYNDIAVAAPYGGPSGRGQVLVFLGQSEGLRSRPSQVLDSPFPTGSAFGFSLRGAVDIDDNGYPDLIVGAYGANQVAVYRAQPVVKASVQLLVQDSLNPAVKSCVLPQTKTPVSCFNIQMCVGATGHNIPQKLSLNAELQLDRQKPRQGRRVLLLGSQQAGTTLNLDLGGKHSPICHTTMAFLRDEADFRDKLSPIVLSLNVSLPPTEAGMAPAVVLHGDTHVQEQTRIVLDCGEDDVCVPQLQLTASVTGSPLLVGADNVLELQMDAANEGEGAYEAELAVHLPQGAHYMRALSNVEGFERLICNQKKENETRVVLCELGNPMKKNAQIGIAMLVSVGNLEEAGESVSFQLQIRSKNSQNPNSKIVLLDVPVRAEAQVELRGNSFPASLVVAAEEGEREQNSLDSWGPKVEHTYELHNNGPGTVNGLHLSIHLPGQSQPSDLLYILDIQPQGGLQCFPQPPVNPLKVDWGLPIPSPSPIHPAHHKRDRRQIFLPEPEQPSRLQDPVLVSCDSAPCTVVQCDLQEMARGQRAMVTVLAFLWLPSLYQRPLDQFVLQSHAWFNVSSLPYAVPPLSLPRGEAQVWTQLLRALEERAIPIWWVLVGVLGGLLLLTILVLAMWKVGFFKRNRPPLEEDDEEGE
# T1 sequence (P05106 27-788): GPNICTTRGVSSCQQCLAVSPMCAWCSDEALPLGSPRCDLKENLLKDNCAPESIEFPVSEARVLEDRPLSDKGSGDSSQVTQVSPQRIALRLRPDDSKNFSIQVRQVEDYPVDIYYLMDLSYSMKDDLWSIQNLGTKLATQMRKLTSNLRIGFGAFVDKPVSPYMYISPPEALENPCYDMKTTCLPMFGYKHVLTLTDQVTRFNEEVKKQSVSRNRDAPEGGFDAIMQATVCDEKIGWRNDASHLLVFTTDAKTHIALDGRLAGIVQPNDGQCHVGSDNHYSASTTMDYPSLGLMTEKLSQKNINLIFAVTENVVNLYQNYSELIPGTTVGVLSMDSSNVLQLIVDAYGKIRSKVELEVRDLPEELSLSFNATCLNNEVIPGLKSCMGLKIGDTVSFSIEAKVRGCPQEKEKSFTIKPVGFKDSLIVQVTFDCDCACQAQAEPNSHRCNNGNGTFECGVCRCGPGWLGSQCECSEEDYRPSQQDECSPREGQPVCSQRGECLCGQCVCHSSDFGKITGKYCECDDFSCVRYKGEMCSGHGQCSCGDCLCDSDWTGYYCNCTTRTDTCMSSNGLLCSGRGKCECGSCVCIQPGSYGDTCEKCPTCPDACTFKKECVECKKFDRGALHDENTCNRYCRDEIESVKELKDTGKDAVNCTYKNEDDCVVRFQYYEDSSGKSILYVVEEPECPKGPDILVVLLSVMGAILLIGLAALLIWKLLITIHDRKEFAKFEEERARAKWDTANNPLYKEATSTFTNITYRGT
# Protocol: (§7) All aggregation studies were performed at 37° C. with a constantly stirred suspension of 3×10^8 platelets/ml. (Platelet count was determined with the aid of a hemacytometer.) Peptides and stimulants were added to these suspensions in 1% dilutions. The PRP and gel-filtered platelets were used within three hours from the time of blood collection.
# (§8) Peptide anti-aggregation potencies were determined from dose-responsive curves for the inhibition of the maximum aggregation responses stimulated by physiologic doses of ADP (10 μm) and thrombin (2 U/ml).
# [4] = biological target: T1, platelets; format: cell-based; details: ADP 10 μm; citrated PRP; read-out: ADP-Stimulated Aggregation (IC50)
# Protocol: Briefly, the change in light transmission was measured through a stirred suspension of platelets in an aggregometer (Model 400 VS, Chrono-Log, Havertown, Pa., USA). […] In studies using thrombin, the PRP was gel-filtered on Sepharose 2B in divalent ion-free Tyrode's solution containing 2% BSA. For all studies, the reference standard was platelet-poor plasma, which was obtained by centrifuging PRP at 1000×g for 5 min.
# as §7, §8
# [5] = biological target: T1, platelets; test: Platelet aggregation assay (Examples XI.G and XII); format: cell-based; details: for reactivity in platelet aggregation relative to 8×: comparator 8×; for fold increase in platelet aggregation potency on substitution of Leu in analogue 5: comparator analogue 5; for fold increase in potency over analogue 1: comparator analogue 1
# Protocol: (§3) Platelet aggregation was assessed using the method of Born, Nature 194:927-929 (1962), incorporated herein by reference. Briefly, the change in light transmission was measured through a stirred suspension of platelets in an aggregometer (Model 400 VS, Chrono-Log, Havertown, Pa., USA). Studies employing ADP were performed with platelet-rich plasma (PRP), which was obtained by low-speed centrifugation (200×g for 10 min.) of whole blood freshly drawn into trisodium citrate (at a final concentration of 11 mM). In studies using thrombin, the PRP was gel-filtered on Sepharose 2B in divalent ion-free Tyrode's solution containing 2% BSA. For all studies, the reference standard was platelet-poor plasma, which was obtained by centrifuging PRP at 1000×g for 5 min.
# All aggregation studies were performed at 37° C. with a constantly stirred suspension of 3×10^8 platelets/mL. (Platelet count was determined with the aid of a hemacytometer.) Peptides and stimulants were added to these suspensions in 1% dilutions. The PRP and gel-filtered platelets were used within three hours from the time of blood collection.
# The peptides described in this Example were synthesized according to the methods of Examples I and XI. Selectivity and potency were measured according to the methods of Examples II through XI. The peptide identification numbers used in this Example are consistent and relevant to this Example only. Some of the peptides are identified by other nomenclature elsewhere in this document.
# [6] = test system: αvβ5; test: αvβ5 ELISA IC50 (μM); remark: listed apart in the source
# Source text: Table printed on a drawing sheet, FIG. 22
# Title: Modifications of Ac-CNPRGD(Y-OMe)RC-NH2
# as §1
# First copying reader's note: Underlining in the printed sequences marks the cyclic part; the footnote for the raised a at 'Peptide' is not printed on the sheet, and the D in D-Pen is printed as a small capital.
# as §2
# [7] = test system: αvβ5; test: αvβ5 ELISA IC50 (μM); remark: listed apart in the source
# Source text: Table printed on a drawing sheet, FIG. 19
# (§4) Title: Modifications of R(Pmc)GHRGD(Y-OMe)RCR
# as §1
# First copying reader's note: The part of each sequence from (Pmc) through C is underlined on the sheet, and the footnotes a,b cited in the head are not printed on it.
# as §2
# [8] = test system: platelets; test: Ex vivo inhibition of platelet aggregation (Table IV); format: in vivo, dog; details: dose as listed per peptide (bolus ± infusion)
# Protocol: as §3, with “Platelet aggregation assays were performed following the methods of this Example or those of Example IX.G. Platelet” for “Platelet”, “(Nature” for “Nature”, “(1962)),” for “(1962),”
# (§5) Platelet counts and ex vivo aggregation studies were performed one hour before and 1, 3, and 5 hours after application of anodal direct current.
# Using the method described in Example V to measure ex vivo inhibition of platelet aggregation and the method described in Example VII to measure bleeding, four additional peptides were tested. These peptides included 11J, 11Q, 11K and 11V.
# [9] = test system: αvβ5; test: αvβ5 ELISA IC50 (μM); remark: listed apart in the source
# Source text: Table printed on a drawing sheet, FIG. 20
# as §4, §1
# First copying reader's note: Footnote marks a, b and c are printed but their texts are not on the sheet; the underlined part of each sequence (Pmc to C) marks the cyclic portion, and D in (DH) and (DY) is a small capital for the D-amino acid.
# as §2
# [10] = test system: coronary thrombosis; test: Electrically induced canine coronary thrombosis (time to full occlusion); format: in vivo, dog
# Protocol: Male mongrel dogs weighing 14 to 20 kg were selected based on proper aggregation of their platelets in response to arachidonic acid, collagen, and adenosine disphosphate (ADP) and based on similar weights and hemodynamic properties.
# Before surgery, the animals were anesthetized with sodium pentobarbital (30 mg/kg, i.v.) and then intubated and ventilated on room air with positive pressure using a respirator (Harvard Apparatus, S. Natick, Mass.) at a volume of 30 ml/kg and a frequency of 12 breaths/min. Surgery, performed under aseptic conditions, was begun with the placement of cannulae into the left carotid artery and jugular vein for monitoring arterial blood pressure (Statham P23 pressure transducer, Gould, Inc., Cardiovascular Products, Oxnard, Calif.) and administering intravenous fluids.
# The heart was exposed via a left thoracotomy through the 5th intercostal space. A 2-cm segment of the left circumflex coronary artery (LCCA) was isolated from surrounding tissue by blunt dissection. […] The intra-coronary electrode was constructed by attaching a 25-gauge hypodermic needle tip to a 30-gauge Teflon-insulated silver-coated copper wire. The mechanical occluder was constructed of stainless steel in a C shape with a Teflon screw (2 mm diameter) on top. It was adjusted to control vessel circumference and decrease the reactive hyperemic flow due to a 10-sec (full) occlusion by 50-70% without affecting basal coronary blood flow (FIG. 1). A monopolar epicardial electrode was sutured to the surface of the ventricle in the region of LCCA distribution to monitor ischemic changes in the electrocardiogram (ECG). The left atrium was cannulated with polythylene tubing for administration of the peptide. Continuous recordings of blood pressure, limb lead II ECG, epicardial electrogram, and mean and phasic LCCA blood flow were obtained on a Model 7 polygraph (Grass Instrument Co., Quincy, Mass.).
# One hour after the completion of surgery, a 100 micro-amp continuous anodal direct current delivered from a 9 volt nickel-cadmium battery was applied to the intimal surface of the LCCA. The anode of the battery was in series with a 250,000 ohm potentiometer and the intraluminal coronary artery electrode. The electric circuit was completed by placing the cathode in a subcutaneous site. Electrical stimulation was applied for three hours. At the conclusion of each experiment, the heart was fibrillated electrically and quickly removed, and the LCCA was dissected free as far as possible to verify the position of the implanted anodal electrode.
# (§6) Animals were randomly assigned to two treatment groups: vehicle control (i.e., normal saline) or RGD peptides at various concentrations. Peptides were administered intra-atrially in both bolus and continuous injections. Each bolus injection consisted of 0.5 to 10 mg/kg and was administered 15 minutes before application of the current. A continuous infusion of the same peptide was then started immediately after completion of this initial injection. Animals received a 25 μg/kg/min to 200 μg/kg/min infusion. The anti-thrombotic effects of the peptides were monitored until 30 minutes after the occurrence of a persistent, occlusive thrombus or five hours after the initiation of electrical stimulation (whichever resulted first). If an occlusive thrombus had not developed within four hours after the initiation of current, the peptide infusion was stopped.
# Coronary thrombosis was quantified as the time to full occlusion. The effects of the various peptide treatments on coronary thrombosis is illustrated in FIG. 4.
# [11] = test system: platelets; test: Ex vivo platelet aggregation in the canine coronary thrombosis study; design: species or system dog; details: 10 mg/kg injection
# Protocol: For all ex vivo studies (see FIG. 3), control aggregation values were standardized to the percentages of light transmission observed in PRP and PPP samples (0% and 100%, respectively).
# as §6, §5
# Platelet aggregation was also determined ex vivo at one, three, and five hours after current application. For these studies, arachidonic acid, or collagen was again used to stimulate the platelets.
substance,measurement,setting,value
Ac-CNPRGD(Y-OMe)LC-NH2 [compound 47],IC50,[1],7.14 µM
R(D-Pen)GHRGDLRCR [analogue 4],IC50,[2],10 µM
G(Pen)GHRGDTRCA,IC50,[3],17 µM
same,IC50,[4],11.3 µM
Ac-CNPRGD(Y-OMe)(dR)C-NH2 [11L],platelet aggregation potency compared with analogue 32,[5]; comparator analogue 32,decrease in potency
G[Pen]GRGDSFCA (cysteine pairing not given here),IC50,[4],115 µM
(Pmp)NPRGD(Y-OMe)RC-NH2 [compound 38],IC50,[6],4.9 µM
GNPRGD(O-Me-Y)RD-NH2 [20Q],potency relative to 17J,[5]; comparator 17J,about three times
same,potency relative to 18J,[5]; comparator 18J,about 20 times
(t-but-am-Pmp)GHRGDLR(Pen)A,IC50,[4],89 µM
Ac-CNPRGD(Y-OMe)KC-NH2 [11R] [listing 1 of 2 here],retained inhibitory activity versus analogue 32,[5]; comparator analogue 32,20%
R(Pmc)GHRGDYRCR,IC50,[4],1 µM
Ac-(Pmc)NPRGD(Y-OMe)RC-NH2 [compound 37],IC50,[6],2.34 µM
RGD(O-Me-Y)RE-NH2 [21I],reactivity in platelet aggregation relative to 8×,[5],about three-fold
G(Pen)GHRGDLRCA [2G],IC50,[2],8.26 µM
R(Pmc)DHRGD(Y-OMe)RCR [compound 18],IC50,[7],7.2 µM
G(Pen)LRGDSRCA,IC50,[3],49 µM
same,IC50,[4],41 µM
(Mpr)RGD(O-Me-Y)RC-NH2 [16A],reactivity in platelet aggregation relative to 8×,[5],about two-fold
Ac-CNPRGD(Y-OMe)(Nle)C-NH2 [11V],ex vivo inhibition platelet aggregation,[8],>98%
R2(Pen)GRGDTPCA,IC50,[3],2.7 µM
same,IC50,[4],8.2 µM
R(Pmc)GHRGDVRCR,IC50,[4],0.69 µM
same,fold increase in platelet aggregation potency on substitution of Leu in analogue 5,[5],4 fold
G(Pen)FRGDSFCA,IC50,[4],< 200 µM
Ac-CNPRGD(Y-OMe)AC-NH2 [11K] [listing 1 of 2 here],ex vivo inhibition platelet aggregation,[8],>98%
same,platelet aggregation potency compared with analogue 32,[5]; comparator analogue 32,substantial decreases
R(Pmc)RHRGD(Y-OMe)RCR [compound 22],IC50,[7],6.2 µM
G(Pen)GRGDTPCA,IC50,[4],22.3 µM
R(Pmc)G(DY)RGD(Y-OMe)RCR [compound 25],IC50,[9],10 µM
(Pmp)GHRGDLRCA,fold increase in potency over analogue 1,[5],2 fold
Ac-CNPRGD(Y-OMe)OC-NH2 [11P],IC50,[1],7.7 µM
R(Pmc)SHRGD(Y-OMe)RCR [compound 19],IC50,[7],6.6 µM
L(Pen)GHRGDLRCA,IC50,[4],10.5 µM
R(Pen)GRGDTPCA,IC50,[4],7 µM
Ac-CNPRGD(O-N-Butyl-Y)RC-NH2 [analogue 34],fold increase in potency over analogue 1,[5],about 150 fold
Ac-(D-Pen)NPRGD(Y-OMe)RC-NH2 [compound 36],IC50,[6],6.7 µM
R(Pmc)GHRGDLRCR [analogue 5],IC50,[2],1.58 µM
Ac-CNPRGD(Y-OMe)(Cit)C-NH2 [11S],IC50,[1],3.46 µM
Ac-CNPRGD(Y-OMe)AC-NH2 [11K] [listing 2 of 2 here],IC50,[1],8.85 µM
(Mpr)NPRGD(Y-OMe)RC-NH2 [compound 39],IC50,[6],3 µM
Ac-CNPKGD(Y-OMe)RC-NH2 [11Q],ex vivo inhibition platelet aggregation,[8],>95%
Ac-CNPRGD(Y-OMe)KC-NH2 [11R] [listing 2 of 2 here],IC50,[1],5.82 µM
Ac-CNPRGD(Y-OMe)EC-NH2 [11J] [listing 1 of 2 here],ex vivo inhibition platelet aggregation,[8],>98%
same,fold decrease in potency versus analogue 32,[5]; comparator analogue 32,15 fold
AcCIPRGDY-OMeRCNH2 [10R],fold increase in platelet aggregation potency versus analogue 26,[5]; comparator analogue 26,3-4 fold
R(Tmc)GHRGDLRCR [analogue 7] [listing 1 of 2 here],fold more potent than analogue 3 in the aggregation assay,[5]; comparator analogue 3,2 fold
R(Pmc)GHRGDFRCR,IC50,[4],0.62 µM
same,fold increase in platelet aggregation potency on substitution of Leu in analogue 5,[5],~5 fold
R(Pen)GRGDWPCR [4R],IC50,[3],0.53 µM
same,coronary thrombosis: time to full occlusion,[10]; 3 mg/kg,ineffective
same,coronary thrombosis: time to full occlusion,[10]; 10 mg/kg,prevented occlusion throughout the duration of the study
same,"ex vivo platelet aggregation by ADP, AA and collagen",[11],unresponsive to all modes of stimulation at all time points
G(Pen)LRGDTPCA,IC50,[4],86 µM
G(D-Pen)GHRGDLRCA [compound 2],IC50,[2],5.27 µM
R(Tmc)GHRGDLRCR [analogue 7] [listing 2 of 2 here],IC50,[2],0.34 µM
R(Pmc)IHRGD(Y-OMe)RCR [compound 20],IC50,[7],9.9 µM
R(Pen)GRGDTPCR,IC50,[3],2 µM
Ac-CNPRGD(Y-OMe)EC-NH2 [11J] [listing 2 of 2 here],IC50,[1],9.47 µM
G(Pen)LRGDSPCA,IC50,[3],308 µM
same,IC50,[4],415 µM
R(Pmc)GYRGD(Y-OMe)RCR [compound 24],IC50,[9],8.8 µM
G(Pen)GRGDRPCA,IC50,[4],22.3 µM
R(Pmc)GPRGD(Y-OMe)RCR [compound 26],IC50,[9],1.7 µM
